Where a SMILES comes first, the peptide text is derived from it.
System: male Wistar rats
Experiment: Comparison with known active ingredients in male Wistar rats under sodium thiopental anaesthesia, rapid i.v. or 5 min infusion
Format: in vivo, rat (male Wistar)
Method: In order to compare the activity of the compounds of the present invention to that of the products of the prior art, various doses of known anti-hypertensive, hypotensive and vasoactive drugs were administered to male Wistar rats under general anaesthesia by sodium thiopental (50 mg/kg, i.p.). The administration was effected through "rapid" i.v. route or through intravenous infusion (inf.) for a time of 5 minutes.
The dose of each product is referred to the base, and the volumes injected were of 100 mcl in case of i.v. administration and […] total (0.9% sodium chloride solution) in case of infusion. The various parameters were evaluated in the same way as in the preceding experiments.

[1] = 2.5 mg/kg, i.v., maximum response
[2] = 5 mcg/kg, i.v., maximum response
[3] = 0.75 mcg/kg, i.v., maximum response

Structure (SMILES): N=C(N)NCCN1CCCCCCC1 [Guanetidine]
- Δ HR (rat, in vivo): -18 ± 6 beats/min
- Δ dp/dt (rat, in vivo): -863 ± 160

Structure (SMILES): C[N+](C)(C)CCCCCC[N+](C)(C)C [Hexameton]
- Δ AP DIASTOLIC [1]: -34 ± 2 mmHg
- Δ AP SYSTOLIC [1]: -44 ± 2 mmHg
- Δ HR [1]: -48 ± 9 beats/min
- Δ dp/dt [1]: -4040 ± 812 mmHg/sec

Structure (SMILES): NCCc1c[nH]c2ccc(O)cc12 [5-hydroxytriptamine]
- Δ AP DIASTOLIC [2]: -39 ± 2 mmHg
- Δ AP SYSTOLIC [2]: -37 ± 3 mmHg
- Δ HR [2]: -12 ± 3 beats/min
- Δ dp/dt [2]: -1410 ± 167 mmHg/sec

Structure (SMILES): NC(N)=NCCC[C@H](NC(=O)[C@H](Cc1ccccc1)NC(=O)[C@@H]1CCCN1C(=O)[C@H](CO)NC(=O)[C@H](Cc1ccccc1)NC(=O)CNC(=O)[C@@H]1CCCN1C(=O)[C@@H]1CCCN1C(=O)[C@@H](N)CCCN=C(N)N)C(=O)O [Bradykinin] (H-RPPGFSPFR-OH)
- Δ AP DIASTOLIC [3]: -18 ± 4 mmHg
- Δ AP SYSTOLIC [3]: -18 ± 3 mmHg
- Δ HR [3]: -11 ± 2 beats/min
- Δ dp/dt [3]: -830 ± 124 mmHg/sec

Structure (SMILES): Clc1cccc(Cl)c1N=C1NCCN1 [Clonidine]
- general effects on the various haemodynamic parameters (in words) (rat, in vivo): general "depressive" effects
- Δ AP DIASTOLIC (rat, in vivo): -9 ± 1 mmHg
- Δ AP SYSTOLIC (rat, in vivo): -15 ± 4 mmHg
- Δ HR (rat, in vivo): -40 ± 8 beats/min
- Δ dp/dt (rat, in vivo): -871 ± 74

Reference: patent US5059624A, “Guanidine derivatives having hypotensive activity, composition containing them and process for obtaining them” (Consiglio Nazionale Delle Ricerche, priority 1988, dated 1991)
